Assay [1] can be described thus: Compound was tested for the competitive inhibition against mouse brain N-Myristoyltransferase. Format: tissue-based.
The nature of assay [2]: Michaelis-Menten constant against myristoyl CoA was determined in mouse. Format: organism-based.

In assay [1], `CCCCCCCCCCCCCC(=O)CSCCNC(=O)CCNC(=O)C(O)C(C)(C)COP(=O)(O)OP(=O)(O)OC[C@H]1O[C@@H](n2cnc3c(N)ncnc32)[C@H](O)[C@@H]1OP(=O)(O)O` (some centres not stated) registered an inhibition constant Ki of 24 nM. In assay [2], the Michaelis-Menten constant (Km) came out at 0.4 µM.

Source of the values: ChEMBL document CHEMBL1124540, “S-(2-oxopentadecyl)-CoA, a nonhydrolyzable analogue of myristoyl-CoA, is a potent inhibitor of myristoyl-CoA:protein N-myristoyltransferase” (J Med Chem, 1989).
